Reference: US20260373149A1, “MIXED LINEAGE KINASE DOMAIN LIKE PSEUDOKINASE (MLKL) ACTIVATORS” (Trustees of Tufts College, priority 2022, published 2026)
Changes are numbered by the printed parent chain.

Columns and labels:
Assay type in all cases: cell-based
[1] = tested on: transformed mouse embryonic fibroblasts with genetic deletions of RIPK3 and MLKL genes; assay: Viability of transformed mouse embryonic fibroblasts with genetic deletions of RIPK3 and MLKL genes; conditions: MEFs with genetic deletions of RIPK3 and MLKL; FIG. 3
Method: Viability of transformed mouse embryonic fibroblasts with genetic deletions of RIPK3 and MLKL genes and treated with SS-1-127 are shown. Affinities of select MLKL activators against recombinant human RIPK1, RIPK3, and MLKL were determined by DiscoveRx.
The compounds described herein are capable of directly activating the downstream executioner of necroptosis, MLKL, thus bypassing a requirement for RIPK3 (FIG. 2).

[2] = target: T1, E239Q mutant of mouse MLKL (Mus musculus, UniProt Q9D2Y4, E239Q); assay: Viability of Mlkl-/- MEFs expressing wild type or E239Q mutant of mouse MLKL-FLAG (CellTiter-Glo); conditions: E239Q vs wild type mouse MLKL; 50 ng/ml Dox 6 hr, then compound 24 hr; FIG. 7
T1 construct: expressed in transfected cells; host or cells: Mlkl-/- mouse embryonic fibroblasts (MEFs), lentiviral, doxycycline-inducible
T1 sequence (Q9D2Y4 1-472 E239Q): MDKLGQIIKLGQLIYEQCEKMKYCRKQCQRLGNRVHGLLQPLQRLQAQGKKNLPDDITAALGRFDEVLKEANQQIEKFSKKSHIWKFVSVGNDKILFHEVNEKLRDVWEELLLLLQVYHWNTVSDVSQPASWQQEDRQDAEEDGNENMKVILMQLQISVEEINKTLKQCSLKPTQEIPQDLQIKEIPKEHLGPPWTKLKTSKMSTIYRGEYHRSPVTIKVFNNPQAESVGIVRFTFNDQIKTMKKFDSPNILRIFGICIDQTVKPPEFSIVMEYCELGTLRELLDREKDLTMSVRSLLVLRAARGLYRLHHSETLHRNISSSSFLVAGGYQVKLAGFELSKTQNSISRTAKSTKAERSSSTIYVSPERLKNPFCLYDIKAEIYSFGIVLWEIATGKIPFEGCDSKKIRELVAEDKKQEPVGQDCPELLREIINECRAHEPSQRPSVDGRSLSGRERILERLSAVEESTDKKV
Method: Mlkl^−/− mouse embryonic fibroblasts (MEFs) were stably infected with lentiviral vector encoding wild type and E239Q mutant of mouse MLKL-FLAG under the control of the Doxocyclin (Dox)-inducible promoter. […] After 24 hr, cell viability at the end of treatment was determined using CellTiter-Glo Viability assay (Promega).

[3] = target: T2, S345A/S347A mutant of MLKL (Mus musculus, UniProt Q9D2Y4, S345A/S347A); assay: Viability of Mlkl-/- MEFs expressing S345A/S347A mutant of mouse MLKL-FLAG (CellTiter-Glo); conditions: 5 μM; 50 ng/ml Dox 6 hr, then 24 hr; FIG. 6
T2 sequence (Q9D2Y4 1-472 S345A/S347A): T1 sequence (Q9D2Y4 1-472 E239Q) with Q239E, S345A, S347A
Method: (§1) Plots show cell viability (%) versus MLKL mutant expressed. […] Cells conditionally expressing wild type and mutants of MLKL have been generated. M272W mutant of MLKL is active but predicted not to bind to MLKL activators. S345A/S347A mutant of MLKL lacks RIPK3 phosphorylation sites. Cells were treated with 50 ng/ml of Dox for 6 hr followed by MLKL activators (left panels) or TNFα/IDN6556 (right panels). The latter combination is a canonical inducer of necroptosis through RIPK3 activation. 5 μM ALD-6-85 and SS-1-127 were used in top and bottom panels, respectively.
(§2) The activity of ALD-6-85 was tested in the cells expressing either wild type MLKL or mutant expressing a bulky Trp residue in place of M272 gatekeeper residue. This mutation is expected to disrupt binding of the drug to MLKL. […] To ensure that observed reduction in killing is not due to the intrinsically lower pro-death activity of M272W mutant, cells were also stimulated with TNF+IDN, inducing necroptosis through a canonical TNFR1-RIPK1-RIPK3-MLKL pathway. […] We also generated MEFs expressing S345A, S347A double mutant of mouse MLKL.

[4] = target: T3, M272W mutant of MLKL (Mus musculus, UniProt Q9D2Y4, M272W); assay: Viability of Mlkl-/- MEFs expressing M272W mutant of mouse MLKL-FLAG (CellTiter-Glo); conditions: 5 μM; 50 ng/ml Dox 6 hr, then 24 hr; FIG. 6
T3 sequence (Q9D2Y4 1-472 M272W): T1 sequence (Q9D2Y4 1-472 E239Q) with Q239E, M272W
Method: as §1, §2

**Q.** How did the “Cell death induced by SS-1-127: dependence on MLKL and RIPK3” value [1] turn out when `CCN(CC)CCOc1ccc(Nc2ncc3cc(-c4ccc(O)c(C#N)c4)c(=O)n(C)c3n2)cc1` [SS-1-127, 5-(2-((4-(2-(Diethylamino)ethoxy)phenyl)amino)-8-methyl-7-oxo-7,8-dihydropyrido[2,3-d]pyrimidin-6-yl)-2-hydroxybenzonitrile] was run?
**A.** The value was “dependent on MLKL expression and independent from RIPK3”.

**Q.** And the “Activity / cell death with E239Q mutation compared to wild type MLKL” value [2]?
**A.** The value was “much improved activity when combined with E239Q mutation compared to wild type MLKL”.

**Q.** What about the “Effect of S345A, S347A double mutation on killing by SS-1-127” value [3] of the same compound?
**A.** The value was “minor effect on killing”.

**Q.** `CCN(CC)CCOc1ccc(Nc2ncc3cc(-c4ccc(O)c([N+](=O)[O-])c4)c(=O)n(C)c3n2)cc1` [ALD-6-85] was tested. Which “Death in cells expressing M272W MLKL compared to wild type” value [4] did it give?
**A.** The value was “induces reduced death in the cells expressing M272W MLKL compared to wild type protein”.
